Experimental findings from US12599596B2, “Anti-tumor pharmaceutical composition based on immune checkpoint blockade and use thereof” (Shanghai Hui Tian Jin Ze Biotech Co., Ltd., priority 2023, dated 2026) are described below.

Assay type in all cases: cell-based
Assay [1] has as its system PD-L1 in A549 lung cancer cells. Briefly: PD-L1 expression by Western blotting. The note with it: concentration-dependent at 5, 10, 20 μM, 24 h. How it is done:
(§1) Different types of well-grown tumor cells (RKO colorectal cancer cells, H1975 lung cancer cells, and A549 lung cancer cells) with a density of 80% or more were respectively spread on a 6-well plate at a density of 5×10^4 cells/well, the volume of the suspension in each well was 2 mL, and the cells were subsequently placed in an incubator at 37° C. for culture. […] After the cells were continuously cultured for 24 h, the culture was terminated, and subsequent detection was conducted.
(§2) After the culture was terminated, the cells were collected and washed with cold PBS 2 times. After the PBS residue was removed, a proper amount of cell lysate was added for cracking, and the cells were incubated on ice for 15 min and then centrifuged on a 4° C. centrifuge at 12,000 rpm for 15 min. The supernatant was carefully aspirated, the protein concentration was measured via the BCA method, a corresponding amount of loading buffer was added, the cells were evenly shaken and incubated in a 100° C. water bath for 10 min, and finally, the sample was subjected to a protein immunoblotting experiment.
For orientation: A western blot detects proteins with antibodies after separation by electrophoresis.

The test system of assay [2] is PD-L1 in H1975 lung cancer cells. The assay can be described thus: PD-L1 expression by Western blotting. Conditions: concentration-dependent at 5, 10, 20 μM, 24 h. How it is done:
as §1, §2

The test system of assay [3] is PD-L1 in RKO colorectal cancer cells. The assay can be described thus: PD-L1 expression by Western blotting. Conditions: concentration-dependent at 5, 10, 20 μM, 24 h. As to the method:
as §1, §2

Assay [4] relates to PD-L1 on RKO colon cancer cell membranes. Briefly: PD-L1 on cell membrane by immunofluorescence. The note with it: 20 μM CBD, different time. As to the method:
• (1) Different types of tumor cells (RKO, HCT116 and HT29 colon cancer cells, and A549, H1975 and H460 lung cancer cells) in the logarithmic growth phase were respectively inoculated on a 6-well plate at an inoculum density of 2.5×10^5 cells/well with 2 mL/well and then placed in a cell incubator overnight incubation. The culture mixture was removed, CBD at different concentrations (0 μM, 5 μM, 10 μM, and 20 μM) was added for treatment for 24 h, the supernatant was removed, and the cells were washed with PBS 2 times, digested with pancreatin, centrifuged at 300×g and 4° C. for 5 min, and collected. The cells were washed with precooled PBS 2 times, centrifuged at 300×g and 4° C. for 5 min, and collected. The cells were washed 2 times with precooled PBS, 100 μL of PBS was added to resuspend the cells, an anti-PD-L1-Alexa Fluor 647 antibody was added, the cells were incubated at room temperature for 30 min and centrifuged at 300×g and 4° C. for 5 min, 300 μL of PBS was added to resuspend the cells in a flow tube, and an Alexa Fluor 647 signal was detected from the sample using a flow cytometer (excitation/emission wavelength of 647 nm/666 nm). • (2) The colorectal cancer cells (RKO) in the logarithmic growth phase were inoculated into a 6-well plate at a density of 2.5×10^5 cells/well, with a 2 mL volume of the suspension in each well. […]

Regarding `C=C(C)[C@@H]1CCC(C)=C[C@H]1c1c(O)cc(CCCCC)cc1O` [CBD, cannabidiol], the “expression of PD-L1 (Western blotting)” value in assay [1], in assay [2] and in assay [3] was “significantly inhibited the expression of PD-L1” in each case. For the same compound, in assay [4], the “expression of PD-L1 on cell membranes (immunofluorescence)” value is “time-dependently decreased the expression of PD-L1”.
